In brackets after ≈: the same amount, converted by molar mass.
Tests used:
[1] = test system: E. coli ATCC 25922; experiment: microbe, parasite or virus in culture; conditions: for MIC: Escherichia coli, ATCC25922, read-out: MIC against E. coli ATCC 25922
Method: (§1) MICs of OaBac5mini, amoxicillin, kanamycin, florfenicol and tetracycline were determined using the two-fold broth microdilution method according to the Clinical and Laboratory Standards Institute (CLSI) guidance ([21]). MIC values of the tested antibacterial agents were determined on three independent occasions. Escherichia coli ATCC 25922 was used as the quality control in all the susceptibility tests.

[2] = test system: S. aureus ATCC 25923; experiment: microbe, parasite or virus in culture; conditions: for MIC: Staphylococcus aureus, ATCC25923, read-out: MIC against S. aureus ATCC 25923
Method: as §1

[3] = test system: E. coli 17; experiment: microbe, parasite or virus in culture; conditions: for MIC: Escherichia coli, 17, read-out: MIC against E. coli 17
Source text: (§2) The strains of E. coli ATCC 25922 and S. aureus ATCC 25923 were purchased from the American Type Culture Collection (ATCC, Manassas, VA, United States). The strains of E. coli W13, E. coli IF4, E. coli 2, and E. coli 17 were individually isolated from the livers of diseased chickens infected by E. coli. The strains of S. aureus B5, S. aureus B9, S. aureus B54, and S. aureus B63 were individually isolated from the milk of cows with mastitis. These clinical isolates were all identified by the VITEK-32 system (bioMérieux, France) and PCR amplification sequencing.
as §1

[4] = test system: E. coli 2; experiment: microbe, parasite or virus in culture; conditions: for MIC: Escherichia coli, 2, read-out: MIC against E. coli 2
Source text: as §2, §1

[5] = test system: E. coli IF4; experiment: microbe, parasite or virus in culture; conditions: for MIC: Escherichia coli, IF4, read-out: MIC against E. coli IF4
Source text: as §2, §1

[6] = test system: E. coli W13; experiment: microbe, parasite or virus in culture; conditions: for MIC: Escherichia coli, W13, read-out: MIC against E. coli W13
Source text: as §2, §1

[7] = test system: S. aureus B54; experiment: microbe, parasite or virus in culture; conditions: for MIC: Staphylococcus aureus, B54, read-out: MIC against S. aureus B54
Source text: as §2, §1

[8] = test system: S. aureus B5; experiment: microbe, parasite or virus in culture; conditions: for MIC: Staphylococcus aureus, B5, read-out: MIC against S. aureus B5
Source text: as §2, §1

[9] = test system: S. aureus B63; experiment: microbe, parasite or virus in culture; conditions: for MIC: Staphylococcus aureus, B63, read-out: MIC against S. aureus B63
Source text: as §2, §1

[10] = test system: S. aureus B9; experiment: microbe, parasite or virus in culture; conditions: for MIC: Staphylococcus aureus, B9, read-out: MIC against S. aureus B9
Source text: as §2, §1

[11] = test system: E. coli ATCC 25922 ΔsbmA; conditions: two-fold broth microdilution, CLSI; three independent occasions; sbmA deletion mutant
Method: The method described by Datsenko and Wanner was used for chromosomal gene deletion ([20]). […] The PCR fragment (1,567 bp) was purified, digested with DpnI, repurified and transferred into E. coli ATCC 25922 by electroporation, in which the Red recombinase expression plasmid pKD46 was previously transformed and induced by L-arabinose. Transformants were selected on Luria-Bertani (LB) agar containing 50 μg/ml of kanamycin at 37°C. The inserted sequence was amplified from the kanamycin-resistant strains by using the primers SBMF: 5′-[…]-3′ and SBMR: 5′-[…]-3′ which is located outside of inactivated gene. The length of the PCR product of sbmA using the primers set SBMF and SBMR in E. coli ATCC 25922 is 1,404 bp. When sbmA is successfully inactivated, the PCR product (2,198 bp) was amplified and sequenced for the verification of the gene deletion.
as §1

[12] = two-fold broth microdilution, CLSI, three independent occasions
[13] = two-fold broth microdilution, CLSI, three independent occasions, isolate from diseased chicken liver
[14] = two-fold broth microdilution, CLSI, three independent occasions, isolate from milk of cows with mastitis

SMILES | MIC [1] | MIC [2] | MIC against E. coli ATCC 25922 ΔsbmA [11] | MIC [3] | MIC [4] | MIC [5] | MIC [6] | MIC [7] | MIC [8] | MIC [9] | MIC [10] | other results
NC[C@H]1O[C@H](O[C@H]2[C@H](O)[C@@H](O[C@H]3O[C@H](CO)[C@@H](O)[C@H](N)[C@H]3O)[C@H](N)C[C@@H]2N)[C@H](O)[C@@H](O)[C@@H]1O [KAN, kanamycin] | – | – | – | – | – | – | – | – | – | – | – | MIC against E. coli ATCC 25922 [1, 12]: 4 µg/mL (≈ 8.26 µM); MIC against S. aureus ATCC 25923 [2, 12]: 4 µg/mL (≈ 8.26 µM); MIC against E. coli 17 [3, 13]: 320 µg/mL (≈ 660 µM); MIC against E. coli 2 [4, 13]: >640 µg/mL; MIC against E. coli IF4 [5, 13]: >640 µg/mL; MIC against E. coli W13 [6, 13]: 320 µg/mL (≈ 660 µM); MIC against S. aureus B54 [7, 14]: 5.83 µg/mL (≈ 12 µM); MIC against S. aureus B5 [8, 14]: 40 µg/mL (≈ 82.6 µM); MIC against S. aureus B63 [9, 14]: 1.25 µg/mL (≈ 2.58 µM); MIC against S. aureus B9 [10, 14]: 186.67 µg/mL (≈ 385 µM)
CN(C)[C@@H]1C(O)=C(C(N)=O)C(=O)[C@@]2(O)C(O)=C3C(=O)c4c(O)cccc4[C@@](C)(O)[C@H]3C[C@@H]12 [TET, tetracycline] | 2 µg/mL (≈ 4.5 µM) | 1 µg/mL (≈ 2.25 µM) | 1.67 µg/mL (≈ 3.76 µM) | 160 µg/mL (≈ 360 µM) | 1 µg/mL (≈ 2.25 µM) | 133 µg/mL (≈ 300 µM) | 160 µg/mL (≈ 360 µM) | 66.7 µg/mL (≈ 150 µM) | 0.08 µg/mL (≈ 0.18 µM) | 0.42 µg/mL (≈ 0.945 µM) | 80 µg/mL (≈ 180 µM) | –
CS(=O)(=O)c1ccc([C@@H](O)[C@@H](CF)NC(=O)C(Cl)Cl)cc1 [FLO, florfenicol] | 4 µg/mL (≈ 11.2 µM) | 16 µg/mL (≈ 44.7 µM) | 5.3 µg/mL (≈ 14.8 µM) | 80 µg/mL (≈ 223 µM) | 267 µg/mL (≈ 744 µM) | 80 µg/mL (≈ 223 µM) | 320 µg/mL (≈ 893 µM) | 2.5 µg/mL (≈ 6.98 µM) | 4.17 µg/mL (≈ 11.6 µM) | 1.04 µg/mL (≈ 2.9 µM) | 1.67 µg/mL (≈ 4.66 µM) | –
CC1(C)S[C@@H]2[C@H](NC(=O)[C@H](N)c3ccc(O)cc3)C(=O)N2[C@H]1C(=O)O [AMO, amoxicillin] | 8 µg/mL (≈ 21.9 µM) | 0.67 µg/mL (≈ 1.83 µM) | 8 µg/mL (≈ 21.9 µM) | > 640 µg/mL | > 640 µg/mL | > 640 µg/mL | > 640 µg/mL | 3.33 µg/mL (≈ 9.11 µM) | 427 µg/mL (≈ 1170 µM) | 2.08 µg/mL (≈ 5.69 µM) | 3.33 µg/mL (≈ 9.11 µM) | –
